Experimental data published in ChEMBL document CHEMBL2021784, “Geopyxins A-E, ent-kaurane diterpenoids from endolichenic fungal strains Geopyxis aff. majalis and Geopyxis sp. AZ0066: structure-activity relationships of geopyxins and their analogues” (J Nat Prod, 2012).
Active and inactive are the calls of the source. No cut-off for these calls is given here.

Tested on: not listed separately
Assay: Cytotoxicity against human PC3M cells after 72 hrs by Alamar blue assay
Assay type: functional, cell-based
Details: PC-3M
Work on `C=C1C(=O)[C@]23C[C@H]1CC[C@H]2[C@]1(C)[C@@H](OC(C)=O)CC[C@@](C)(C(=O)OC)[C@H]1C[C@@H]3OC(C)=O` yielded an IC50 of 2310 nM.
`C=C1C(=O)[C@]23C[C@H]1CC[C@H]2[C@]1(C)[C@@H](OC(C)=O)CC[C@@](C)(C(=O)O)[C@H]1C[C@@H]3O` showed an IC50 of 3880 nM.
In the case of `C=C1C(=O)[C@]23C[C@H]1CC[C@H]2[C@]1(C)[C@@H](O)CC[C@@](C)(C(=O)OC)[C@H]1C[C@@H]3O` [METHYLGEOPYXIN A], the IC50 is reported as 2270 nM.
With `COc1cccc2c1C(=O)c1c(O)c3c(c(O)c1C2=O)C[C@@](O)(C(=O)CO)C[C@@H]3O[C@H]1C[C@H](N)[C@H](O)[C@H](C)O1` [DOXORUBICIN] the IC50 was 240 nM.
Compound `C=C1C(=O)[C@]23C[C@H]1CC[C@H]2[C@]1(C)CCC[C@@](C)(C(=O)O)[C@H]1C[C@@H]3O` [GEOPYXIN B] has an IC50 of 5410 nM.
`C=C1C(=O)[C@]23C[C@H]1CC[C@H]2[C@]1(C)[C@@H](OC(C)=O)CC[C@@](C)(C(=O)OC)[C@H]1C[C@@H]3O` showed an IC50 of 1540 nM.
`C=C1C(=O)[C@]23C[C@H]1CC[C@H]2[C@]1(C)[C@@H](O)[C@@H](O)C[C@@](C)(C(=O)OC)[C@H]1C[C@@H]3O` [METHYLGEOPYXIN E] gave an IC50 of 3990 nM.
`C=C1C(=O)[C@]23C[C@H]1CC[C@H]2[C@]1(C)C(=O)CC[C@@](C)(C(=O)OC)[C@H]1C[C@@H]3O` [METHYLGEOPYXIN C] showed an IC50 of 3630 nM.

Tested on: MCF7
Assay: Cytotoxicity against human MCF7 cells after 72 hrs by Alamar blue assay
Assay type: functional, cell-based
Details: MCF7, 72 h
With `C=C1C(=O)[C@]23C[C@H]1CC[C@H]2[C@]1(C)[C@@H](OC(C)=O)CC[C@@](C)(C(=O)OC)[C@H]1C[C@@H]3OC(C)=O` the IC50 was 1180 nM.
With `C=C1C(=O)[C@]23C[C@H]1CC[C@H]2[C@]1(C)[C@@H](OC(C)=O)CC[C@@](C)(C(=O)O)[C@H]1C[C@@H]3O` the IC50 was 3480 nM.
`C=C1C(=O)[C@]23C[C@H]1CC[C@H]2[C@]1(C)[C@@H](O)CC[C@@](C)(C(=O)OC)[C@H]1C[C@@H]3O` [METHYLGEOPYXIN A] gave an IC50 of 790 nM.
`COc1cccc2c1C(=O)c1c(O)c3c(c(O)c1C2=O)C[C@@](O)(C(=O)CO)C[C@@H]3O[C@H]1C[C@H](N)[C@H](O)[C@H](C)O1` [DOXORUBICIN] gave an IC50 of 420 nM.
`C=C1C(=O)[C@]23C[C@H]1CC[C@H]2[C@]1(C)CCC[C@@](C)(C(=O)O)[C@H]1C[C@@H]3O` [GEOPYXIN B] showed an IC50 of 4320 nM.
Work on `C=C1C(=O)[C@]23C[C@H]1CC[C@H]2[C@]1(C)[C@@H](OC(C)=O)CC[C@@](C)(C(=O)OC)[C@H]1C[C@@H]3O` yielded an IC50 of 530 nM.
`C=C1C(=O)[C@]23C[C@H]1CC[C@H]2[C@]1(C)[C@@H](O)[C@@H](O)C[C@@](C)(C(=O)OC)[C@H]1C[C@@H]3O` [METHYLGEOPYXIN E] gave an IC50 of 2080 nM.
In the case of `C=C1C(=O)[C@]23C[C@H]1CC[C@H]2[C@]1(C)C(=O)CC[C@@](C)(C(=O)OC)[C@H]1C[C@@H]3O` [METHYLGEOPYXIN C], the IC50 is reported as 1670 nM.

Tested on: MDA-MB-231
Assay: Cytotoxicity against human MDA-MB-231 cells after 72 hrs by Alamar blue assay
Assay type: functional, cell-based
Details: MDA-MB-231, 72 h
`C=C1C(=O)[C@]23C[C@H]1CC[C@H]2[C@]1(C)[C@@H](OC(C)=O)CC[C@@](C)(C(=O)OC)[C@H]1C[C@@H]3OC(C)=O` gave an IC50 of 1930 nM.
In the case of `C=C1C(=O)[C@]23C[C@H]1CC[C@H]2[C@]1(C)[C@@H](OC(C)=O)CC[C@@](C)(C(=O)O)[C@H]1C[C@@H]3O`, the IC50 is reported as 4110 nM.
Compound `C=C1C(=O)[C@]23C[C@H]1CC[C@H]2[C@]1(C)[C@@H](O)CC[C@@](C)(C(=O)OC)[C@H]1C[C@@H]3O` [METHYLGEOPYXIN A] has an IC50 of 730 nM.
`COc1cccc2c1C(=O)c1c(O)c3c(c(O)c1C2=O)C[C@@](O)(C(=O)CO)C[C@@H]3O[C@H]1C[C@H](N)[C@H](O)[C@H](C)O1` [DOXORUBICIN] gave an IC50 of 580 nM.
Compound `C=C1C(=O)[C@]23C[C@H]1CC[C@H]2[C@]1(C)CCC[C@@](C)(C(=O)O)[C@H]1C[C@@H]3O` [GEOPYXIN B] has an IC50 of 3310 nM.
Compound `C=C1C(=O)[C@]23C[C@H]1CC[C@H]2[C@]1(C)[C@@H](OC(C)=O)CC[C@@](C)(C(=O)OC)[C@H]1C[C@@H]3O` has an IC50 of 1150 nM.
`C=C1C(=O)[C@]23C[C@H]1CC[C@H]2[C@]1(C)[C@@H](O)[C@@H](O)C[C@@](C)(C(=O)OC)[C@H]1C[C@@H]3O` [METHYLGEOPYXIN E] showed an IC50 of 3810 nM.
`C=C1C(=O)[C@]23C[C@H]1CC[C@H]2[C@]1(C)C(=O)CC[C@@](C)(C(=O)OC)[C@H]1C[C@@H]3O` [METHYLGEOPYXIN C] gave an IC50 of 3380 nM.

Tested on: NCI-H460
Assay: Cytotoxicity against human NCI-H460 cells after 72 hrs by Alamar blue assay
Assay type: functional, cell-based
Details: NCI-H460, 72 h
With `C=C1C(=O)[C@]23C[C@H]1CC[C@H]2[C@]1(C)[C@@H](OC(C)=O)CC[C@@](C)(C(=O)OC)[C@H]1C[C@@H]3OC(C)=O` the IC50 was 1260 nM.
Compound `C=C1C(=O)[C@]23C[C@H]1CC[C@H]2[C@]1(C)[C@@H](OC(C)=O)CC[C@@](C)(C(=O)O)[C@H]1C[C@@H]3O` has an IC50 of 3520 nM.
For `C=C1C(=O)[C@]23C[C@H]1CC[C@H]2[C@]1(C)[C@@H](O)CC[C@@](C)(C(=O)OC)[C@H]1C[C@@H]3O` [METHYLGEOPYXIN A], the IC50 was 1080 nM.
`COc1cccc2c1C(=O)c1c(O)c3c(c(O)c1C2=O)C[C@@](O)(C(=O)CO)C[C@@H]3O[C@H]1C[C@H](N)[C@H](O)[C@H](C)O1` [DOXORUBICIN] gave an IC50 of 420 nM.
Compound `C=C1C(=O)[C@]23C[C@H]1CC[C@H]2[C@]1(C)CCC[C@@](C)(C(=O)O)[C@H]1C[C@@H]3O` [GEOPYXIN B] has an IC50 of 2250 nM.
In the case of `C=C1C(=O)[C@]23C[C@H]1CC[C@H]2[C@]1(C)[C@@H](OC(C)=O)CC[C@@](C)(C(=O)OC)[C@H]1C[C@@H]3O`, the IC50 is reported as 820 nM.
Work on `C=C1C(=O)[C@]23C[C@H]1CC[C@H]2[C@]1(C)[C@@H](O)[C@@H](O)C[C@@](C)(C(=O)OC)[C@H]1C[C@@H]3O` [METHYLGEOPYXIN E] yielded an IC50 of 2270 nM.
`C=C1C(=O)[C@]23C[C@H]1CC[C@H]2[C@]1(C)C(=O)CC[C@@](C)(C(=O)OC)[C@H]1C[C@@H]3O` [METHYLGEOPYXIN C] showed an IC50 of 2280 nM.

Tested on: SF-268
Assay: Cytotoxicity against human SF268 cells after 72 hrs by Alamar blue assay
Assay type: functional, cell-based
Details: SF-268, 72 h
With `C=C1C(=O)[C@]23C[C@H]1CC[C@H]2[C@]1(C)[C@@H](OC(C)=O)CC[C@@](C)(C(=O)OC)[C@H]1C[C@@H]3OC(C)=O` the IC50 was 1180 nM.
For `C=C1C(=O)[C@]23C[C@H]1CC[C@H]2[C@]1(C)[C@@H](OC(C)=O)CC[C@@](C)(C(=O)O)[C@H]1C[C@@H]3O`, the IC50 was 2370 nM.
`C=C1C(=O)[C@]23C[C@H]1CC[C@H]2[C@]1(C)[C@@H](O)CC[C@@](C)(C(=O)OC)[C@H]1C[C@@H]3O` [METHYLGEOPYXIN A] gave an IC50 of 720 nM.
`COc1cccc2c1C(=O)c1c(O)c3c(c(O)c1C2=O)C[C@@](O)(C(=O)CO)C[C@@H]3O[C@H]1C[C@H](N)[C@H](O)[C@H](C)O1` [DOXORUBICIN] showed an IC50 of 620 nM.
`C=C1C(=O)[C@]23C[C@H]1CC[C@H]2[C@]1(C)CCC[C@@](C)(C(=O)O)[C@H]1C[C@@H]3O` [GEOPYXIN B] showed an IC50 of 2350 nM.
`C=C1C(=O)[C@]23C[C@H]1CC[C@H]2[C@]1(C)[C@@H](OC(C)=O)CC[C@@](C)(C(=O)OC)[C@H]1C[C@@H]3O` gave an IC50 of 660 nM.
`C=C1C(=O)[C@]23C[C@H]1CC[C@H]2[C@]1(C)[C@@H](O)[C@@H](O)C[C@@](C)(C(=O)OC)[C@H]1C[C@@H]3O` [METHYLGEOPYXIN E] showed an IC50 of 1020 nM.
For `C=C1C(=O)[C@]23C[C@H]1CC[C@H]2[C@]1(C)C(=O)CC[C@@](C)(C(=O)OC)[C@H]1C[C@@H]3O` [METHYLGEOPYXIN C], the IC50 was 1560 nM.

Tested on: Fibroblast
Assay: Induction of heat shock response in mouse fibroblasts expressing GFP at 2.5 uM after overnight incubation by fluorescence assay
Assay type: functional, cell-based
Details: not given
With `C=C1C(=O)[C@]23C[C@H]1CC[C@H]2[C@]1(C)[C@@H](OC(C)=O)CC[C@@](C)(C(=O)OC)[C@H]1C[C@@H]3OC(C)=O` the Activity was “inactive”.
In the case of `C=C1C(=O)[C@]23C[C@H]1CC[C@H]2[C@]1(C)[C@@H](OC(C)=O)CC[C@@](C)(C(=O)O)[C@H]1C[C@@H]3O`, the Activity is reported as “inactive”.
For `C=C1C(=O)[C@]23C[C@H]1CC[C@H]2[C@]1(C)[C@@H](O)CC[C@@](C)(C(=O)OC)[C@H]1C[C@@H]3O` [METHYLGEOPYXIN A], the Activity was “inactive”.
In the case of `C=C1C(=O)[C@]23C[C@H]1CC[C@H]2[C@]1(C)CCC[C@@](C)(C(=O)O)[C@H]1C[C@@H]3O` [GEOPYXIN B], the Activity is reported as “Active”.
For `C=C1C(=O)[C@]23C[C@H]1CC[C@H]2[C@]1(C)[C@@H](OC(C)=O)CC[C@@](C)(C(=O)OC)[C@H]1C[C@@H]3O`, the Activity was “Active”.
In the case of `C=C1C(=O)[C@]23C[C@H]1CC[C@H]2[C@]1(C)[C@@H](O)[C@@H](O)C[C@@](C)(C(=O)OC)[C@H]1C[C@@H]3O` [METHYLGEOPYXIN E], the Activity is reported as “inactive”.
For `C=C1C(=O)[C@]23C[C@H]1CC[C@H]2[C@]1(C)C(=O)CC[C@@](C)(C(=O)OC)[C@H]1C[C@@H]3O` [METHYLGEOPYXIN C], the Activity was “inactive”.
